Assay results from patent US9963475B2, “Anthracene-9, 10-dione dioxime compound prodrugs and their uses” (Beta Cat Pharmaceuticals, Inc., priority 2015, dated 2018).
Structures can show the parent of a compound that is named as a salt. Where two headings read alike, the source gives them in different places.

Columns and labels:
[1] = Pharmacokinetics of Compound 10 (prodrug) and estimation of Compound 1 (parent) following oral and intravenous administration; format: in vivo, Male Sprague Dawley Rats; settings: for Vd / AUC(0-inf) / AUC(0-t) / clearance / half-life / MRT last: male, Sprague Dawley; for Vd: rat, plasma, iv, 1.28 mg/kg; for AUC(0-inf) / AUC(0-t) / clearance / half-life / MRT last / AUCExtra / Co: rat plasma; for AUC(0-inf) / AUC(0-t) / clearance / half-life / MRT last / AUCExtra: IV 1.28 mg/kg sodium salt of compound 10; for MRT last: read-out: MRT0-last; for Co: IV 1.28 mg/kg sodium salt of compound 10, mean concentration data
Source text: Pharmacokinetics of Compound 10 (Prodrug) and Estimation of Compound 1 (Parent) Following Oral and Intravenous Administration in Male Sprague Dawley Rats

[2] = Mouse PK study with Compound 24; settings: in vivo; for bioavailability: nominal doses and AUClast of IV (1 mg/kg) and PO (10 mg/kg) used
Source text: Mouse PK Study with Compound 24 Summary of Pharmacokinetic Parameters of Compound 24 and Tegavivint: […]

[3] = Stability assay in buffer (pH 1 and pH 6), LC-MS/MS; format: physicochemical
Description: (§1) A stock solution of the compound will be prepared in dimethylsulfoxide (DMSO) at 10 mM concentration. This stock solution will be serially diluted in DMSO to get stock solutions of 5, 2.5, 1.25, 0.625, 0.312, 0.156, and 0.078 mM. Working solutions of compound at a range of concentrations (100, 50, 25, 12.5, 6.25, 3.12, 1.56, and 0.78 μM) will be prepared in different buffers (pH 1 and 6).
(§2) In a 100 mL bottle, 33.5 mL of 0.2 M hydrochloric acid solution will be added to 12.5 mL of 0.2 M potassium chloride solution and diluted to […] with Milli-Q® water. The pH of the buffer solution will be adjusted to 1.0 with 0.2 M HCl solution and finally, volume will be made to 100 mL with Milli-Q® water.
(§3) In a 100 mL bottle, 6.15 mL of 0.2 M disodium hydrogen phosphate (dibasic) and 43.85 mL of 0.2 M sodium dihydrogen phosphate (monobasic) solution will be added. The pH of the buffer solution will be adjusted to 6.0 using the phosphate solutions. The volume will be made to 100 mL with Milli-Q® water.
The study will be performed in a 96-well deep well plate by spiking 10 μL of stock solutions into 990 μL buffer and 100 μL aliquots will be withdrawn at 0 and 120 min. The aliquots will be collected in centrifuge tubes containing 100 μL of acetonitrile. To the quenched samples, internal standard will be added and they will be taken for analysis using LC-MS/MS spectrometry. The experiments will be performed in duplicate in an orbital shaker maintained at 37° C. at 60 rpm.
(§4) The samples will be analysed for BC3005 using a fit-for-purpose LC-MS/MS method. If the sample concentration is above upper limit of quantification, the samples will be diluted and read against the calibration curve.
(§5) The concentration in samples will be determined against the calibration curve by using the following equation: Y=mX+C

[4] = Solubility assay in buffer (pH 1 and pH 6), LC-MS/MS; format: physicochemical
Description: as §1, §2, §3
The study will be performed in a 96-well deep well plate by spiking 10 μL stock solutions into 990 μL buffer. Spiked buffer samples will be maintained at room temperature for 2 h. Incubations will be performed in duplicates. The plate will be centrifuged at 4000 rpm for 20 min at room temperature to enable the insoluble particles/precipitates to settle down. The supernatant will be diluted 1:1 with acetonitrile and internal standard will be added. The samples will be analyzed using LC-MS/MS.
as §4, §5

[5] = IV 1.28 mg/kg sodium salt of compound 10, read-out: Vd
[6] = IV 1.28 mg/kg sodium salt of compound 10, read-out: Vdss
[7] = IV 1 mg/kg Compound 24, read-out: T½ (converted)
[8] = PO 10 mg/kg Compound 24, read-out: C0/Cmax
[9] = aqueous buffer pH 1, simulated gastric fluid, kinetic from dmso stock, pH 1, room temperature
[10] = aqueous buffer pH 6, aqueous buffer, kinetic from dmso stock, pH 6, room temperature

What does the source list for `C[C@@H]1C[C@H](C)CN(S(=O)(=O)c2ccc3c(c2)C(=NO)c2cc(S(=O)(=O)N4C[C@H](C)C[C@H](C)C4)ccc2C3=NO)C1` [Compound 1, (9E,10E)-2,7-bis(((3R,5S)-3,5-dimethylpiperidin-1-yl)sulfonyl)anthracene-9,10-dione dioxime, reference compound]?
Vd [1, 5]: 16.9 L/kg; Vd [1, 6]: 15 L/kg; AUC(0-inf) [1]: 446 ng·h/mL; AUC(0-t) [1]: 396 ng·h/mL; clearance [1]: 48.3 mL/min/kg; half-life [1]: 4 h; MRT last [1]: 3.56 h; AUCExtra [1]: 11.19%; Co [1]: 116.31 ng/mL; AUC(0-inf) ([2]; IV 1 mg/kg Compound 24): 873 ng·h/mL; AUC(0-t) ([2]; IV 1 mg/kg Compound 24): 752 ng·h/mL; MRT inf ([2]; IV 1 mg/kg Compound 24): 10.5 h; half-life [2, 7]: 9.39 h; AUC(0-t) ([2]; PO 10 mg/kg Compound 24): 229 ng·h/mL; Tmax ([2]; PO 10 mg/kg Compound 24): 1 h; Cmax [2, 8]: 52.5 ng/mL; bioavailability [2]: 3%

Which “% Compound remaining at 120 min” value ([3]; pH 1, 37° C.) does the source give for `C[C@@H]1C[C@H](C)CN(S(=O)(=O)c2ccc3c(c2)C(=NO)c2cc(S(=O)(=O)N4C[C@H](C)C[C@H](C)C4)ccc2C3=NOP(=O)(O)O)C1` [Compound 4, ((((9E,10E)-3,6-bis(((3R,5S)-3,5-dimethylpiperidin-1-yl)sulfonyl)-10-(hydroxyimino)-anthracen-9(10H)-ylidene)amino)oxy)phosphonic acid] here?
Its value is 96%.

And the “% Compound remaining at 120 min” value ([3]; pH 6, 37° C.)?
The value was 101%.

And the solubility at 2 h [4, 9]?
The solubility at 2 h was < 0.78 µM.

What about the solubility at 2 h [4, 10] of the same molecule?
Its solubility at 2 h is > 100 µM.

With `C[C@@H]1C[C@H](C)CN(S(=O)(=O)c2ccc3c(c2)C(=NO)c2cc(S(=O)(=O)N4C[C@H](C)C[C@H](C)C4)ccc2C3=NOCOP(=O)(O)O)C1` [Compound 10, ((((9E,10E)-3,6-bis(((3S,5R)-3,5-dimethylpiperidin-1-yl)sulfonyl)-10-(hydroxyimino)anthracen-9(10H)-ylidene)amino)-oxy)methyl dihydrogen phosphate] as the molecule, how does the “% Compound remaining at 120 min” value ([3]; pH 1, 37° C.) read?
Its value is 101%.

What about the “% Compound remaining at 120 min” value ([3]; pH 6, 37° C.) of the same molecule?
Its value is 79%.

What about the Vd [1, 5] of the same molecule?
The Vd was 3.31 L/kg.

What about the Vd [1, 6] of the same molecule?
The Vd was 0.39 L/kg.

And the AUC(0-inf) [1]?
Its AUC(0-inf) is 885 ng·h/mL.

And the AUC(0-t) [1]?
Its AUC(0-t) is 869 ng·h/mL.

And the clearance [1]?
The clearance was 24.1 mL/min/kg.

What about the half-life [1] of the same molecule?
Its half-life is 1.59 h.

And the MRT last [1]?
The MRT last was 0.15 h.

What about the AUCExtra [1] of the same molecule?
The AUCExtra was 1.81%.

What about the Co [1] of the same molecule?
Its Co is 11437.00 ng/mL.

And the solubility at 2 h [4, 9]?
The solubility at 2 h was < 0.78 µM.

And the solubility at 2 h [4, 10]?
Its solubility at 2 h is < 0.78 µM.

Which “% Compound remaining at 120 min” value ([3]; pH 1, 37° C.) does the source give for `CCC(C)C(N)C(=O)OCON=C1c2ccc(S(=O)(=O)N3C[C@H](C)C[C@H](C)C3)cc2C(=NO)c2cc(S(=O)(=O)N3C[C@H](C)C[C@H](C)C3)ccc21` (stereo partly drawn) [Compound 24, ((((9E,10E)-3,6-bis(((3R,5S)-3,5-dimethylpiperidin-1-yl)sulfonyl)-10-(hydroxyimino)anthracen-9(10H)-ylidene)amino)oxy)methyl 2-amino-3-methylpentanoate dihydrochloride] here?
Its value is 101%.

And the “% Compound remaining at 120 min” value ([3]; pH 6, 37° C.)?
Its value is 93%.

What about the solubility at 2 h [4, 9] of the same molecule?
Its solubility at 2 h is > 100 µM.

And the solubility at 2 h [4, 10]?
Its solubility at 2 h is < 0.78 µM.

And the AUC(0-inf) ([2]; IV 1 mg/kg Compound 24)?
The AUC(0-inf) was 379 ng·h/mL.

What about the AUC(0-t) ([2]; IV 1 mg/kg Compound 24) of the same molecule?
Its AUC(0-t) is 376 ng·h/mL.

And the MRT inf ([2]; IV 1 mg/kg Compound 24)?
Its MRT inf is 0.476 h.

What about the clearance ([2]; IV 1 mg/kg Compound 24) of the same molecule?
The clearance was 43.9 mL/min/kg.

What about the Cmax ([2]; IV 1 mg/kg Compound 24, C0 back extrapolated concentration at time zero) of the same molecule?
The Cmax was 2370 ng/mL.

And the half-life [2, 7]?
The half-life was 0.748 h.

What about the Vd ([2]; IV 1 mg/kg Compound 24, read-out: VSS) of the same molecule?
The Vd was 1.25 L/kg.

And the AUC(0-inf) ([2]; PO 10 mg/kg Compound 24)?
Its AUC(0-inf) is 78.2 ng·h/mL.

And the AUC(0-t) ([2]; PO 10 mg/kg Compound 24)?
Its AUC(0-t) is 60.5 ng·h/mL.

And the MRT inf ([2]; PO 10 mg/kg Compound 24)?
The MRT inf was 1.36 h.

What about the Tmax ([2]; PO 10 mg/kg Compound 24) of the same molecule?
Its Tmax is 0.25 h.

What about the Cmax [2, 8] of the same molecule?
Its Cmax is 60.7 ng/mL.

What about the half-life ([2]; PO 10 mg/kg Compound 24, read-out: T½ (converted)) of the same molecule?
Its half-life is 0.873 h.

And the bioavailability [2]?
Its bioavailability is 2%.

With `CCC(C)C(N)C(=O)OCON=C1c2cc(S(=O)(=O)N3C[C@H](C)C[C@H](C)C3)ccc2C(=NO)c2ccc(S(=O)(=O)N3C[C@H](C)C[C@H](C)C3)cc21` (stereo partly drawn) [Compound 38, ((((9E,10E)-2,7-bis(((3S,5R)-3,5-dimethylpiperidin-1-yl)sulfonyl)-10-(hydroxyimino)anthracen-9(10H)-ylidene)amino)oxy)methyl 2-amino-3-methylpentanoate] as the molecule, how does the “% Compound remaining at 120 min” value ([3]; pH 1, 37° C.) read?
The value was 85%.

And the “% Compound remaining at 120 min” value ([3]; pH 6, 37° C.)?
Its value is 96%.

What about the solubility at 2 h [4, 9] of the same molecule?
Its solubility at 2 h is < 0.78 µM.

What about the solubility at 2 h [4, 10] of the same molecule?
Its solubility at 2 h is < 0.78 µM.

For `CC(C)C[C@H](N)C(=O)OCON=C1c2ccc(S(=O)(=O)N3C[C@H](C)C[C@H](C)C3)cc2C(=NO)c2cc(S(=O)(=O)N3C[C@H](C)C[C@H](C)C3)ccc21.Cl` [Compound 41, ((((9E,10E)-3,6-bis(((3R,5S)-3,5-dimethylpiperidin-1-yl)sulfonyl)-10-(hydroxyimino)anthracen-9(10H)-ylidene)amino)oxy)methyl leucinate hydrochloride], which “% Compound remaining at 120 min” value ([3]; pH 1, 37° C.) is on record?
The value was 98%.

And the “% Compound remaining at 120 min” value ([3]; pH 6, 37° C.)?
The value was 76%.

What about the solubility at 2 h ([4]; pH 1, room temperature) of the same molecule?
Its solubility at 2 h is <0.78 µM.

And the solubility at 2 h ([4]; pH 6, room temperature)?
Its solubility at 2 h is <0.78 µM.

Which “% Compound remaining at 120 min” value ([3]; pH 1, 37° C.) does the source give for `CC(C)[C@H](N)C(=O)OCON=C1c2cc(S(=O)(=O)N3C[C@H](C)C[C@H](C)C3)ccc2C(=NO)c2ccc(S(=O)(=O)N3C[C@H](C)C[C@H](C)C3)cc21.Cl` [Compound 43, ((((9E,10E)-2,7-bis(((3R,5S)-3,5-dimethylpiperidin-1-yl)sulfonyl)-10-(hydroxyimino)anthracen-9(10H)-ylidene)amino)-oxy)methylvalinate hydrochloride] here?
Its value is 90%.

And the “% Compound remaining at 120 min” value ([3]; pH 6, 37° C.)?
Its value is 128%.

What about the solubility at 2 h ([4]; pH 1, room temperature) of the same molecule?
Its solubility at 2 h is <0.78 µM.

What about the solubility at 2 h ([4]; pH 6, room temperature) of the same molecule?
Its solubility at 2 h is <0.78 µM.

What does the source list for `C[C@@H]1C[C@H](C)CN(S(=O)(=O)c2ccc3c(c2)C(=NOCOC(=O)C(N)C(C)(C)C)c2cc(S(=O)(=O)N4C[C@H](C)C[C@H](C)C4)ccc2C3=NO)C1` (stereo partly drawn) [Compound 46, ((((9E,10E)-2,7-bis(((3R,5S)-3,5-dimethyl-piperidin-1-yl)sulfonyl)-10-(hydroxyimino)anthracen-9(10H)-ylidene)amino)oxy)methyl-2-amino-3,3-dimethylbutanoate]?
% Compound remaining at 120 min ([3]; pH 1, 37° C.): 93%; % Compound remaining at 120 min ([3]; pH 6, 37° C.): 97%; solubility at 2 h ([4]; pH 1, room temperature): <0.78 µM; solubility at 2 h ([4]; pH 6, room temperature): <0.78 µM
